Data on one compound can be found in patent US7741281B2, “Hepatitis C virus inhibitors” (Bristol-Myers Squibb Company, priority 2005, dated 2010).

Assay [1] has as its target T1, HCV NS3/4A protease complex, H77 strain (Hepatitis C virus genotype 1a, UniProt P27958, C1454S/C1711G).
T1 construct: recombinant HCV NS3/4A protease complex (amino acids 1027 to 1711) for these strains; His tag (inferred from pET21b vector and Ni-NTA purification); made in house; host or cells: Escherichia coli BL21 (DE3), pET21b
The assay is described as follows: FRET peptide assay to monitor HCV NS3/4A proteolytic activity (H77 strain). In kind it is biochemical, HCV genotype 1a. An excerpt:
(§1) HCV NS3 protease complexes, derived from the BMS strain, H77 strain or J4L6S strain, were generated, as described below. These purified recombinant proteins were generated for use in a homogeneous assay (see below) to provide an indication of how effective compounds of the present disclosure would be in inhibiting HCV NS3 proteolytic activity.
(§2) Serum from an HCV-infected patient was obtained from Dr. T. Wright, San Francisco Hospital. An engineered full-length cDNA (compliment deoxyribonucleic acid) template of the HCV genome (BMS strain) was constructed from DNA fragments obtained by reverse transcription-PCR (RT-PCR) of serum RNA (ribonucleic acid) and using primers selected on the basis of homology between other genotype 1a strains. From the determination of the entire genome sequence, a genotype 1a was assigned to the HCV isolate according to the classification of Simmonds et al. (See P Simmonds, K A Rose, S Graham, S W Chan, F McOmish, B C Dow, E A Follett, P L Yap and H Marsden, J. Clin. Microbiol., 31(6), 1493-1503 (1993)). […]

Assay [2] has as its target T2, HCV NS3/4A protease complex, J4L6S strain (Hepatitis C virus genotype 1b, UniProt O92972, C1454S/C1711G).
T2 construct: recombinant HCV NS3/4A protease complex (amino acids 1027 to 1711) for these strains; His tag (inferred from pET21b vector and Ni-NTA purification); made in house; host or cells: Escherichia coli BL21 (DE3), pET21b
The assay can be described thus: FRET peptide assay to monitor HCV NS3/4A proteolytic activity (J4L6S strain). The format is biochemical, HCV genotype 1b.
Text: as §1, §2

For assay [3], the target named is T3, HCV NS3/4A protease complex, BMS strain (UniProt P27958, species not given/STRAIN_BMS).
T3 construct: for H77 and J4L6S; fused on or other part: Three-lysine solubilizing tail at the end of NS4A, for the H77 and J4L6S constructs; Purification on Ni-NTA and the pET21b vector imply a His tag
The assay can be described thus: FRET peptide assay to monitor HCV NS3/4A proteolytic activity (BMS strain). The format is biochemical, HCV genotype 1a.
Text: as §1
Serum from an HCV-infected patient was obtained from Dr. T. Wright, San Francisco Hospital. An engineered full-length cDNA (compliment deoxyribonucleic acid) template of the HCV genome (BMS strain) was constructed from DNA fragments obtained by reverse transcription-PCR (RT-PCR) of serum RNA (ribonucleic acid) and using primers selected on the basis of homology between other genotype 1a strains. From the determination of the entire genome sequence, a genotype 1a was assigned to the HCV isolate according to the classification of Simmonds et al. (See P Simmonds, K A Rose, S Graham, S W Chan, F McOmish, B C Dow, E A Follett, P L Yap and H Marsden, J. Clin. Microbiol., 31(6), 1493-1503 (1993)). […] The infectious clones, H77 (1a genotype) and J4L6S (1b genotype) were obtained from R. Purcell (NIH) and the sequences are published in Genbank (AAB67036, see Yanagi, M., Purcell, R. H., Emerson, S. U. and Bukh, J. Proc. Natl. Acad. Sci. U.S.A. 94(16), 8738-8743 (1997); AF054247, see Yanagi, M., St Claire, M., Shapiro, M., Emerson, S. U., Purcell, R. H. and Bukh, J, Virology 244 (1), 161-172. (1998)).
The H77 and J4L6S strains were used for production of recombinant NS3/4A protease complexes. DNA encoding the recombinant HCV NS3/4A protease complex (amino acids 1027 to 1711) for these strains were manipulated as described by P. Gallinari et al. (see Gallinari P, Paolini C, Brennan D, Nardi C, Steinkuhler C, De Francesco R. Biochemistry. 38(17):5620-32, (1999)). Briefly, a three-lysine solubilizing tail was added at the 3′-end of the NS4A coding region. The cysteine in the P1 position of the NS4A-NS4B cleavage site (amino acid 1711) was changed to a glycine to avoid the proteolytic cleavage of the lysine tag. Furthermore, a cysteine to serine mutation was introduced by PCR at amino acid position 1454 to prevent the autolytic cleavage in the NS3 helicase domain. The variant DNA fragment was cloned in the pET21b bacterial expression vector (Novagen) and the NS3/4A complex was expressed in Escherichia. coli strain BL21 (DE3) (Invitrogen) following the protocol described by P. Gallinari et al. (see Gallinari P, Brennan D, Nardi C, Brunetti M, Tomei L, Steinkuhler C, De Francesco R., J Virol. 72(8):6758-69 (1998)) with modifications. Briefly, the NS3/4A protease complex expression was induced with 0.5 millimolar (mM) Isopropyl β-D-1-thiogalactopyranoside (IPTG) for 22 hours (h) at 20° C. A typical fermentation (1 Liter (L)) yielded approximately 10 grams (g) of wet cell paste. The cells were resuspended in lysis buffer (10 mL/g) consisting of 25 mM N-(2-Hydroxyethyl)Piperazine-N′-(2-Ethane Sulfonic acid) (HEPES), pH 7.5, 20% glycerol, 500 mM Sodium Chloride (NaCl), 0.5% Triton X-100, 1 microgram/milliliter (“μg/mL”) lysozyme, 5 mM Magnesium Chloride (MgCl2), 1 μg/ml DnaseI, 5 mM β-Mercaptoethanol (βME), Protease inhibitor-Ethylenediamine Tetraacetic acid (EDTA) free (Roche), homogenized and incubated for 20 minutes (min) at 4° C. The homogenate was sonicated and clarified by ultra-centrifugation at 235000 g for 1 h at 4° C. Imidazole was added to the supernatant to a final concentration of 15 mM and the pH adjusted to 8.0. The crude protein extract was loaded on a Nickel-Nitrilotriacetic acid (Ni-NTA) column pre-equilibrated with buffer B (25 mM HEPES, pH 8.0, 20% glycerol, 500 mM NaCl, 0.5% Triton X-100, 15 mM imidazole, 5 mM βME). The sample was loaded at a flow rate of 1 mL/min. The column was washed with 15 column volumes of buffer C (same as buffer B except with 0.2% Triton X-100). The protein was eluted with 5 column volumes of buffer D (same as buffer C except with 200 mM Imidazole). […]

pIC50: −log10 of the molar value. Like-named read-outs stand apart in the source and are kept apart here.

T3 sequence (P27958 1027-1657, change not shown, one chain of several): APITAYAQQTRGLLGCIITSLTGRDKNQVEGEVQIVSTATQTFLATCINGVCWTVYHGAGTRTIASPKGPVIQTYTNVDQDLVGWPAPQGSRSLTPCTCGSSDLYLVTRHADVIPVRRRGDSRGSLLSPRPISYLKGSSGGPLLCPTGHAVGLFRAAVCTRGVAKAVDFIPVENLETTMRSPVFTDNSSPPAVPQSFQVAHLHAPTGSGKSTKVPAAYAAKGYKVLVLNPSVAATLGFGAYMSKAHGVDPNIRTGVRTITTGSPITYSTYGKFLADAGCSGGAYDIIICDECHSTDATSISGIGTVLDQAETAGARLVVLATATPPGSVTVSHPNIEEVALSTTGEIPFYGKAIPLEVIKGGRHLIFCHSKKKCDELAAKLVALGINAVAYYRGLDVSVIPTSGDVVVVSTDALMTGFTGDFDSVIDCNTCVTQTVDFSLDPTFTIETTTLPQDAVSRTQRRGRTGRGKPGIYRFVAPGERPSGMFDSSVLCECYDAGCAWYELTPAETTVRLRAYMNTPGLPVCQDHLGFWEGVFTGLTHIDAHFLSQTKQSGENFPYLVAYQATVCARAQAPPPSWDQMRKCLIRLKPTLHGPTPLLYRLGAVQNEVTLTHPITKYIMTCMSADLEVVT
T1 sequence (P27958 1027-1711 C1454S/C1711G, one chain of several): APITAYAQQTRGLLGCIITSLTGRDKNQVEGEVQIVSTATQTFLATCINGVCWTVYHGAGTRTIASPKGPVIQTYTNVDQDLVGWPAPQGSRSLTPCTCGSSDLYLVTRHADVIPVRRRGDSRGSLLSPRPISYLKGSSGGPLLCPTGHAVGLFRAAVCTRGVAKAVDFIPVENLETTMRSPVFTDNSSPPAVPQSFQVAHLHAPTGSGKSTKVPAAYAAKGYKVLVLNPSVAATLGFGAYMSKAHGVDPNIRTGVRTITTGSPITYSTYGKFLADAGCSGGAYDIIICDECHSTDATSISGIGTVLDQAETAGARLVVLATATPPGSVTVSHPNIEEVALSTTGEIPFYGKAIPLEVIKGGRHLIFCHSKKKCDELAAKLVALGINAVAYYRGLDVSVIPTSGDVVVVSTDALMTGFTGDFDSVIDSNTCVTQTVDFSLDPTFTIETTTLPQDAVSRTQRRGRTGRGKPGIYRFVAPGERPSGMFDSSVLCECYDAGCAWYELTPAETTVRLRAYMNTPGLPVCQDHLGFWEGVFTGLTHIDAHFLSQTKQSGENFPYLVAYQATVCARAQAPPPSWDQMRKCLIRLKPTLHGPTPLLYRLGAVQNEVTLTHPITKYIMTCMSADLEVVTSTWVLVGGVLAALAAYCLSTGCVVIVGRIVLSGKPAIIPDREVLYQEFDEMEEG
T2 sequence (O92972 1027-1711 C1454S/C1711G, one chain of several): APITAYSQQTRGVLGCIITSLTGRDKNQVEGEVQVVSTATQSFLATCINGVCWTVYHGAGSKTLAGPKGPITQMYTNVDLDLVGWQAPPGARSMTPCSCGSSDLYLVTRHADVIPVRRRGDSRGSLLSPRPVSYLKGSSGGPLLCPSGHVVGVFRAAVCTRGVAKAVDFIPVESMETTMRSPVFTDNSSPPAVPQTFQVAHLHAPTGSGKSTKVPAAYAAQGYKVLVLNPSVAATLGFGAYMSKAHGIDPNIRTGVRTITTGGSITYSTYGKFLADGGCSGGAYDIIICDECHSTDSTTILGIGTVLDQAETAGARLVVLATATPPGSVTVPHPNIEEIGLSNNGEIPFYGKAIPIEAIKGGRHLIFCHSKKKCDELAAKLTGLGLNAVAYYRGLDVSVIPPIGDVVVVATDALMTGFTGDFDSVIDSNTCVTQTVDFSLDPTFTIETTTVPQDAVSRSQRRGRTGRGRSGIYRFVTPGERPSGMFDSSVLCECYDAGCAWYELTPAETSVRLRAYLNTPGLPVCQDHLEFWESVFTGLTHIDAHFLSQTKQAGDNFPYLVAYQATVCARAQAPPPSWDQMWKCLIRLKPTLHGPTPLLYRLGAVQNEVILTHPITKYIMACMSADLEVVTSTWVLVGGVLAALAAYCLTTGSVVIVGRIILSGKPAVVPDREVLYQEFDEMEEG

With `COc1c(O[C@@H]2C[C@H]3C(=O)N[C@]4(C(=O)NS(=O)(=O)C5CC5)C[C@H]4/C=C\CCCCC[C@H](NC(=O)OC(C)(C)C)C(=O)N3C2)ccc2c(Cl)nccc12` [Compound 3], the pIC50 is 9.22 in assay [1]; 9.33 in assay [2]; 8.55 in assay [3] (BMS strain, read-out: IC50 against the NS3/4A BMS strain in the enzyme assay); greater than 7.00 in assay [3] (NS3/4A BMS strain, read-out: IC50 Activity Range).
